Experimental data as given in patent US8071584B2 (GlaxoSmithKline LLC, priority 2007, dated 2011).

Test system: human monocyte stimulated cytokine production (TNF-α)
Test: Monocyte assay (LPS-stimulated TNF-α production)
Format: cell-based
Settings: 300 nM, human monocytes, LPS
Method: Effect of IKK-β inhibition on human monocyte stimulated cytokine production was assessed as follows: Monocytes were isolated from heparinized whole blood by Ficoll gradient, followed by purification of CD14+ cells using MACS magnetic cell separation beads. Isolated monocytes were then adhered to 96-well culture plates at 1×10^6 cells/mL in RPMI 1640 10% FBS (JRH Biosciences, Lenexa Kans.) for 2 h. Test compounds are added to the wells 30 minutes prior to stimulation with a final vehicle concentration of 0.1% DMSO. Monocytes were activated by the addition of 200 ng/mL endotoxin (LPS; E. coli serotype 026:B6) (Sigma, St. Louis, Mo.) and incubated for 24 hrs at 37 C. Cell-free supernates were analyzed by Alphascreen™ (Perkin Elmer, Waltham, Mass.) for TNF-α using R&D Systems matched pair Abs. Viability of the cells was determined by 10% trypan blue exclusion.

Row | Compound | inhibition at 0.3 µM [%]
1 | NC(=O)c1cc(-c2csc(CN3CCCCCC3)c2)cc2c(C3CCS(=O)(=O)C3)c[nH]c12 (centres unmarked) [Example 186, 3-(1,1-Dioxidotetrahydro-3-thienyl)-5-[5-(hexahydro-1H-azepin-1-ylmethyl)-3-thienyl]-1H-indole-7-carboxamide] | 0 to 100
2 | NC(=O)c1cc(-c2ccccc2)cc2c(C3CC4CCC(C3)S4(=O)=O)c[nH]c12 (stereo not drawn) [Example 192, 3-[(3-endo)-8,8-Dioxido-8-thiabicyclo[3.2.1]oct-3-yl]-5-phenyl-1H-indole-7-carboxamide] | 0 to 100
3 | NC(=O)c1cc(-c2csc(CN3CCC3)c2)cc2c(C3CC4CCC(C3)S4(=O)=O)c[nH]c12 (stereo not drawn) [Example 204, 3-[(3-endo)-8,8-Dioxido-8-thiabicyclo[3.2.1]oct-3-yl]-5-[5-(1-azetidinylmethyl)-3-thienyl]-1H-indole-7-carboxamide] | 0 to 100
4 | NC(=O)c1cc(-c2csc(CN3CCCCCC3)c2)cc2c(C3CC4CCC(C3)S4(=O)=O)c[nH]c12 (stereo not drawn) [Example 208, 3-[(3-exo)-8,8-Dioxido-8-thiabicyclo[3.2.1]oct-3-yl]-5-[5-(hexahydro-1H-azepin-1-ylmethyl)-3-thienyl]-1H-indole-7-carboxamide] | 0 to 100
5 | NC(=O)c1cc(-c2ccoc2)cc2c(C3CCCS(=O)(=O)C3)c[nH]c12 (centres unmarked) [Example 217, 3-(1,1-Dioxidotetrahydro-2H-thiopyran-3-yl)-5-(3-furanyl)-1H-indole-7-carboxamide] | 0 to 100
6 | NC(=O)c1cc(-c2ccc(F)cc2)cc2c(C3CCCS(=O)(=O)C3)c[nH]c12 (centres unmarked) [Example 220, 3-(1,1-Dioxidotetrahydro-2H-thiopyran-3-yl)-5-(4-fluorophenyl)-1H-indole-7-carboxamide] | 0 to 100
7 | NC(=O)c1cc(-c2ccccc2)cc2c(C3CCCS(=O)(=O)C3)c[nH]c12 (centres unmarked) [Example 221, 3-(1,1-Dioxidotetrahydro-2H-thiopyran-3-yl)-5-phenyl-1H-indole-7-carboxamide] | 0 to 100
8 | NC(=O)c1cc(-c2cccs2)cc2c(C3CCCS(=O)(=O)C3)c[nH]c12 (centres unmarked) [Example 222, 3-(1,1-Dioxidotetrahydro-2H-thiopyran-3-yl)-5-(2-thienyl)-1H-indole-7-carboxamide] | 0 to 100
9 | CC1(C)CC(c2c[nH]c3c(C(N)=O)cc(-c4csc(CN5CCCCCC5)c4)cc23)CCS1(=O)=O (centres unmarked) [Example 231, 3-(2,2-Dimethyl-1,1-dioxidotetrahydro-2H-thiopyran-4-yl)-5-[5-(hexahydro-1H-azepin-1-ylmethyl)-3-thienyl]-1H-indole-7-carboxamide] | 0 to 100

Same assay, conditions: human CD14+ monocytes, 200 ng/mL LPS, 24 hrs, values given as 'about', read-out: pIC50 in the monocyte assay (converted)

Row | Compound | IC50 [nM]
10 | NC(=O)c1cc(-c2nccs2)cc2c(C3CCS(=O)(=O)CC3)c[nH]c12 [Example 85, 3-(1,1-Dioxidotetrahydro-2H-thiopyran-4-yl)-5-(1,3-thiazol-2-yl)-1H-indole-7-carboxamide] | 5.01 to 1000
11 | NC(=O)c1cc(-c2csc(CC3CC3)c2)cc2c(C3CCS(=O)(=O)CC3)c[nH]c12 [Example 97, 5-[5-(Cyclopropylmethyl)-3-thienyl]-3-(1,1-dioxidotetrahydro-2H-thiopyran-4-yl)-1H-indole-7-carboxamide] | 5.01 to 1000
12 | COCc1ccc(-c2cc(C(N)=O)c3[nH]cc(C4CCS(=O)(=O)CC4)c3c2)s1 [Example 98, 3-(1,1-Dioxidotetrahydro-2H-thiopyran-4-yl)-5-{5-[(methyloxy)methyl]-2-thienyl}-1H-indole-7-carboxamide] | 5.01 to 1000
13 | Cc1n[nH]c(C)c1-c1cc(C(N)=O)c2[nH]cc(C3CCS(=O)(=O)CC3)c2c1 [Example 140, 5-(3,5-Dimethyl-1H-pyrazol-4-yl)-3-(1,1-dioxidotetrahydro-2H-thiopyran-4-yl)-1H-indole-7-carboxamide] | > 1000
14 | NC(=O)c1c(F)c(-c2ccccc2)cc2c(C3CCS(=O)(=O)CC3)c[nH]c12 [Example 168, 3-(1,1-Dioxidotetrahydro-2H-thiopyran-4-yl)-6-fluoro-5-phenyl-1H-indole-7-carboxamide] | 5.01 to 1000
15 | NC(=O)c1cc(-c2ccccc2)c(F)c2c(C3CCS(=O)(=O)CC3)c[nH]c12 [Example 169, 3-(1,1-Dioxidotetrahydro-2H-thiopyran-4-yl)-4-fluoro-5-phenyl-1H-indole-7-carboxamide] | 5.01 to 1000
16 | NC(=O)c1cc(-c2ccsc2)c(F)c2c(C3CCS(=O)(=O)CC3)c[nH]c12 [Example 170, 3-(1,1-Dioxidotetrahydro-2H-thiopyran-4-yl)-4-fluoro-5-(3-thienyl)-1H-indole-7-carboxamide] | 5.01 to 1000
17 | COC(=O)c1cc(-c2ccc(F)cc2)cc2c([C@@H]3CCSC3)c[nH]c12 [Example 172, Methyl 5-(4-fluorophenyl)-3-[(3S)-tetrahydro-3-thienyl]-1H-indole-7-carboxylate] | 5.01 to 1000
18 | COC(=O)c1cc(-c2ccc(F)cc2)cc2c([C@H]3CCSC3)c[nH]c12 [Example 173, methyl 5-(4-fluorophenyl)-3-[(3R)-tetrahydro-3-thienyl]-1H-indole-7-carboxylate] | 5.01 to 1000
19 | NC(=O)c1cc(-c2csc(CN3CCC3)c2)cc2c(C3CCS(=O)(=O)C3)c[nH]c12 (centres unmarked) [Example 185, 5-[5-(1-Azetidinylmethyl)-3-thienyl]-3-(1,1-dioxidotetrahydro-3-thienyl)-1H-indole-7-carboxamide] | 5.01 to 1000
20 | NC(=O)c1cc(-c2csc(CN3CCCC3)c2)cc2c(C3CCS(=O)(=O)C3)c[nH]c12 (centres unmarked) [Example 187, 3-(1,1-Dioxidotetrahydro-3-thienyl)-5-[5-(1-pyrrolidinylmethyl)-3-thienyl]-1H-indole-7-carboxamide] | 5.01 to 1000
21 | NC(=O)c1cc(-c2ccco2)cc2c(C3CCS(=O)(=O)C3)c[nH]c12 (centres unmarked) [Example 188, 3-(1,1-Dioxidotetrahydro-3-thienyl)-5-(2-furanyl)-1H-indole-7-carboxamide] | 5.01 to 1000

Second part, the molecule after the results:

Row | IC50 [nM] | Compound
22 | > 1000 | NC(=O)c1cc(-c2ccoc2)cc2c(C3CCS(=O)(=O)C3)c[nH]c12 (centres unmarked) [Example 189, 3-(1,1-Dioxidotetrahydro-3-thienyl)-5-(3-furanyl)-1H-indole-7-carboxamide]
23 | 5.01 to 1000 | NC(=O)c1cc(-c2cccs2)cc2c(C3CCS(=O)(=O)C3)c[nH]c12 (centres unmarked) [Example 190, 3-(1,1-Dioxidotetrahydro-3-thienyl)-5-(2-thienyl)-1H-indole-7-carboxamide]
24 | 5.01 to 1000 | NC(=O)c1cc(-c2ccc3sccc3c2)cc2c(C3CCS(=O)(=O)C3)c[nH]c12 (centres unmarked) [Example 191, 5-(1-Benzothien-5-yl)-3-(1,1-dioxidotetrahydro-3-thienyl)-1H-indole-7-carboxamide]
25 | 5.01 to 1000 | NC(=O)c1cc(-c2csc(CN3CCCCCC3)c2)cc2c(C3CC4CCC(C3)S4(=O)=O)c[nH]c12 (stereo not drawn) [Example 203, 3-[(3-endo)-8,8-Dioxido-8-thiabicyclo[3.2.1]oct-3-yl]-5-[5-(hexahydro-1H-azepin-1-ylmethyl)-3-thienyl]-1H-indole-7-carboxamide]
26 | 5.01 to 1000 | NC(=O)c1cc(-c2csc(CN3CCCC3)c2)cc2c(C3CC4CCC(C3)S4(=O)=O)c[nH]c12 (stereo not drawn) [Example 205, 3-[(3-endo)-8,8-Dioxido-8-thiabicyclo[3.2.1]oct-3-yl]-5-[5-(1-pyrrolidinylmethyl)-3-thienyl]-1H-indole-7-carboxamide]
27 | 5.01 to 1000 | NC(=O)c1cc(-c2ccccc2)cc2c(C3CCCS(=O)(=O)CC3)c[nH]c12 (centres unmarked) [Example 212, 3-(1,1-Dioxido-4-thiepanyl)-5-phenyl-1H-indole-7-carboxamide]
28 | 5.01 to 1000 | NC(=O)c1cc(-c2ccco2)cc2c(C3CCCS(=O)(=O)C3)c[nH]c12 (centres unmarked) [Example 218, 3-(1,1-Dioxidotetrahydro-2H-thiopyran-3-yl)-5-(2-furanyl)-1H-indole-7-carboxamide]
29 | 5.01 to 1000 | NC(=O)c1cc(-c2ccsc2)cc2c(C3CCCS(=O)(=O)C3)c[nH]c12 (centres unmarked) [Example 219, 3-(1,1-Dioxidotetrahydro-2H-thiopyran-3-yl)-5-(3-thienyl)-1H-indole-7-carboxamide]
30 | > 1000 | CC1(C)C[C@@H](c2c[nH]c3c(C(N)=O)cc(-c4ccc(F)cc4)cc23)CCS1(=O)=O [Example 224, 3-[(4S)-2,2-Dimethyl-1,1-dioxidotetrahydro-2H-thiopyran-4-yl]-5-(4-fluorophenyl)-1H-indole-7-carboxamide]
31 | 5.01 to 1000 | CC1(C)C[C@H](c2c[nH]c3c(C(N)=O)cc(-c4ccc(F)cc4)cc23)CCS1(=O)=O [Example 225, 3-[(4R)-2,2-dimethyl-1,1-dioxidotetrahydro-2H-thiopyran-4-yl]-5-(4-fluorophenyl)-1H-indole-7-carboxamide]
32 | 5.01 to 1000 | CC1(C)CC(c2c[nH]c3c(C(N)=O)cc(-c4ccccc4)cc23)CCS1(=O)=O (centres unmarked) [Example 226, 3-(2,2-Dimethyl-1,1-dioxidotetrahydro-2H-thiopyran-4-yl)-5-phenyl-1H-indole-7-carboxamide]
33 | 5.01 to 1000 | CC1(C)CC(c2c[nH]c3c(C(N)=O)cc(-c4ccsc4)cc23)CCS1(=O)=O (centres unmarked) [Example 227, 3-(2,2-Dimethyl-1,1-dioxidotetrahydro-2H-thiopyran-4-yl)-5-(3-thienyl)-1H-indole-7-carboxamide]
34 | 5.01 to 1000 | CC1(C)CC(c2c[nH]c3c(C(N)=O)cc(-c4ccoc4)cc23)CCS1(=O)=O (centres unmarked) [Example 228, 3-(2,2-Dimethyl-1,1-dioxidotetrahydro-2H-thiopyran-4-yl)-5-(3-furanyl)-1H-indole-7-carboxamide]
35 | 5.01 to 1000 | CN(C)Cc1cc(-c2cc(C(N)=O)c3[nH]cc(C4CCS(=O)(=O)C(C)(C)C4)c3c2)cs1 (centres unmarked) [Example 232, 5-{5-[(Dimethylamino)methyl]-3-thienyl}-3-(2,2-dimethyl-1,1-dioxidotetrahydro-2H-thiopyran-4-yl)-1H-indole-7-carboxamide]
